The assay deals with fully phosphorylated, active Mouse ERK2 protein (Mus musculus (Mouse), UniProt P63085). As to the kind of experiment: Active ERK2 (aERK) IMAP assay. Particulars: IMAP fluorescence polarization; 30 μM ATP; 30 minute pre-incubation. Type of assay: biochemical.

Molecules are shown by their SMILES.

Sequence of fully phosphorylated, active Mouse ERK2 protein (P63085 whole entry): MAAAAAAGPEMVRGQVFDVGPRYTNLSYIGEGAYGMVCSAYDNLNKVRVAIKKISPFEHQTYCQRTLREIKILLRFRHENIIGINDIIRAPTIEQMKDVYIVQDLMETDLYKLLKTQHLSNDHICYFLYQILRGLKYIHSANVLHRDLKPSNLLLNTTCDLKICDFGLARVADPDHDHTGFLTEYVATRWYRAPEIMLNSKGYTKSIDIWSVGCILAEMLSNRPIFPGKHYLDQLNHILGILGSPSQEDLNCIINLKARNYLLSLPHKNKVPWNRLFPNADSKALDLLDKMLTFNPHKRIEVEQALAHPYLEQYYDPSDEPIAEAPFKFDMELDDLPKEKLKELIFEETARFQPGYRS

In the case of `Cc1cc(-c2n[nH]c3ccc(C(=O)NN4CCCC(CO)(Oc5ccc(F)cc5)C4)cc23)ccn1` (stereo not drawn) [compound 148, N-[3-(4-fluorophenoxy)-3-(hydroxymethyl)-1-piperidinyl]-3-(2-methyl-4-pyridinyl)-1H-indazole-5-carboxamide], it took 445 nM to reach half-maximal inhibition (IC50).
For the compound `COCC1(Cc2ccccc2F)CCCN(NC(=O)c2ccc3[nH]nc(-c4ccnc(C)c4)c3c2)C1` (stereo not drawn) [compound 149, N-[3-[(2-fluorophenyl)methyl]-3-(methoxymethyl)-1-piperidinyl]-3-(2-methyl-4-pyridinyl)-1H-indazole-5-carboxamide], the midpoint of inhibition, the IC50, lay at 937 nM. This IC50 lies about 2.1-fold higher than the previous one.
As for `Cc1cc(-c2n[nH]c3ccc(C(=O)NN4CCC(CO)(Cc5ccccc5F)C4)cc23)ccn1` (stereo not drawn) [compound 150, N-[3-[(2-fluorophenyl)methyl]-3-(hydroxymethyl)-1-pyrrolidinyl]-3-(2-methyl-4-pyridinyl)-1H-indazole-5-carboxamide], the figure is 32.2 nM; as for `Cc1cc(-c2n[nH]c3ccc(C(=O)NN4CCCC(CO)(Cc5ccccc5F)C4)cc23)ccn1` (stereo not drawn) [compound 151, N-[3-[(2-fluorophenyl)methyl]-3-(hydroxymethyl)-1-piperidinyl]-3-(2-methyl-4-pyridinyl)-1H-indazole-5-carboxamide], 193 nM; as for `Cc1cc(-c2n[nH]c3ccc(C(=O)NC4CCCC(N)(Cc5ccccc5F)C4)cc23)ccn1` (stereo not drawn) [compound 152, N-[3-amino-3-[(2-fluorophenyl)methyl]cyclohexyl]-3-(2-methyl-4-pyridinyl)-1H-indazole-5-carboxamide], 514 nM.
In turn, `Cc1cc(-c2n[nH]c3ccc(C(=O)NC4CCCC(Cc5ccccc5F)(NC=O)C4)cc23)ccn1` (stereo not drawn) [compound 153, N-[3-[(2-fluorophenyl)methyl]-3-(formylamino)cyclohexyl]-3-(2-methyl-4-pyridinyl)-1H-indazole-5-carboxamide] yielded an IC50 of 162 nM.

(Values after patent publication US9351965B2, “Indazole derivatives useful as ERK inhibitors” (Merck Sharp & Dohme Corp., priority 2010, dated 2016).)
